Laboratory results reported in patent US9637502B2, “Crystal form of Cefathiamidine compound and preparation method therefor” (TIANJIN UNIVERSITY, priority 2014, dated 2017).

Key:
[1] = Differential scanning calorimetry, decomposing exothermic peak; type: physicochemical; conditions: 25˜200° C., 10° C./min, nitrogen 80 mL/min
Protocol: The novel crystalline form of Cefathiamidine compound provided in the present invention is determined by differential scanning calorimeter, and the differential scanning calorimetry thermogram comprises a melting endothermic peak at 169.6±1° C. and a decomposing exothermic peak at 172.2±1° C. as shown in FIG. 6. Test conditions are as follows: temperature range, 25˜200° C., temperature rising rate, 10° C./min, nitrogen protection: 80 mL/min.

[2] = Reproductive toxicity test; type: in vivo; conditions: compared with prior art
Protocol: (§1) The novel crystalline form of Cefathiamidine compound of the present invention was tested by toxicity tests and in vitro antibacterial activity tests (taking the crystalline form of Cefathiamidine compound obtained in Example 1 for example).

enterococcus = experiment: In vitro antibacterial activity test; type: cell-based; conditions: against enterococcus
Protocol: as §1
(§2) Thus, the antibacterial activity was better than that of any prior art, and was more suitable for clinical application.

streptococcus pyogenes = experiment: In vitro antibacterial activity test; type: cell-based; conditions: against streptococcus pyogenes
Protocol: as §1, §2

haemophilus influenza = experiment: In vitro antibacterial activity test; type: cell-based; conditions: against haemophilus influenza
Protocol: as §1, §2

streptococcus pneumonia = experiment: In vitro antibacterial activity test; type: cell-based; conditions: Streptococcus pneumoniae; against streptococcus pneumonia
Protocol: as §1, §2

another three bacterias = experiment: In vitro antibacterial activity test; type: cell-based; conditions: against another three bacterias
Protocol: as §1, §2

[3] = Thermal stability tests (storage); type: physicochemical; conditions: within 4 months at 30° C.
Protocol: 5 g of solid Cefathiamidine compound with a purity of 98% was added to 100 mL of ethanol at a temperature of 45° C., until being totally dissolved to form a solution, and then 300 mL of isopropanol as a solventing-out agent was dropwise added to the solution within 3 hours; followed by cooling the solution down to 0° C. at a rate of 0.2° C./min; continuing to stir for 3 hours.

[4] = Toxicity test, LD50 in mice; conditions: mouse, in vivo
Protocol: as §1

[5] = prior-art crystalline forms; cited from earlier work

CC(=O)OCC1=C(C(=O)O)N2C(=O)[C@@H](NC(=O)CSC(=NC(C)C)NC(C)C)[C@H]2SC1
thermal decomposing temperature (decomposing exothermic peak, DSC) [1]: 172.2±1 °C

CC(=O)OCC1=C(C(=O)O)N2C(=O)[C@@H](NC(=O)CSC(=NC(C)C)NC(C)C)[C@H]2SC1.N [Example 1, (6R,7R)-3[(acetyloxy)methyl]-7-[α-(N,N′-diisopropyl-carbamimidoylsulfanyl)-acetylamino]-8-oxo-5-thia-1-aza-bicyclo[4,2,0]oct-2-ene-2-carboxylic acid ammonium salt]
reproductive toxicity [2]: lower reproductive toxicity than that of any prior art
MIC90 (enterococcus): 1.9 µg/mL
MIC90 (streptococcus pyogenes): 0.48 µg/mL
MIC90 (haemophilus influenza): 1.8 µg/mL
MIC90 (streptococcus pneumonia): 0.24 µg/mL
MIC90 (another three bacterias): < 7.8 µg/mL
thermal decomposing temperature (decomposing exothermic peak, DSC) [1]: 172.2 °C
thermal stability (change on storage) [3]: did not make any change
LD50 ([4]; ip, intraperitoneal injection): 1300 ± 200 mg/kg
LD50 ([4]; mice, intravenous injection): 1100 ± 20 mg/kg

CC(=O)OCC1=C(C(=O)O)N2C(=O)[C@@H](NC(=O)CSC(=NC(C)C)NC(C)C)[C@H]2SC1 [Example 6]
thermal decomposing temperature (decomposing exothermic peak, DSC) [1]: 171.8 °C
thermal stability (change on storage) [3]: did not make any change

CC(=O)OCC1=C(C(=O)O)N2C(=O)[C@@H](NC(=O)CSC(=NC(C)C)NC(C)C)[C@H]2SC1 [crystalline form of Cefathiamidine obtained from acetonitril]
thermal cracking / decomposition temperature [5]: 145.4 °C

CC(=O)OCC1=C(C(=O)O)N2C(=O)[C@@H](NC(=O)CSC(=NC(C)C)NC(C)C)[C@H]2SC1 [crystalline form prepared in CN1495187A]
thermal cracking / decomposition temperature [5]: ≥ 154±1 °C
